Test results: the supplement of paper PMC8988213
Where a name gives a salt, the structure may show the parent alone.

Assays:
[1] = test system: ID188 patient-derived PDAC 2D line (pre-FOLFIRINOX); experiment: normalised area under dose-response curve (viability relative to DMSO, 7 doses up to 10 µM) (fraction (AUC)); higher = less sensitive (more viability retained); conditions: 72 h; top dose: 10 µM
Outline: (§1)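 Patient-derived 2D PDAC cells grown out from organoids were seeded robotically at 1,500–3,000 cells/well in 96-well plates and incubated overnight at 37°C, 5% CO2. SelleckChem library compounds were added at seven concentrations (3-fold dilution series, highest 10 µM) for 72 h. CellTiter-Glo luminescence was read after 10 min. Viability was normalised to the DMSO control, and area under the dose-response curve was derived with the GRmetrics R package.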

[2] = test system: ID211 patient-derived PDAC 2D line (post-FOLFIRINOX); experiment: as above; conditions: 72 h; top dose: 10 µM
Outline: as §1

| Compound | normalised area under dose-response curve [1] | normalised area under dose-response curve [2] |
| --- | --- | --- |
| Cc1ccccc1C(C(=O)NC1CCCCC1)N(C(=O)Cn1ccnc1C)c1cccc(F)c1 (stereo unspecified) [AGI-5198] | 0.972 | 0.804 |
| O=C(Nc1cccc(C(F)(F)F)c1)Nc1cc(S(=O)(=O)NC2CC2)ccc1-c1ccsc1 [AGI-6780] | 0.906 | 0.842 |
| NC(=O)c1ncn([C@@H]2O[C@H](CO)[C@@H](O)[C@H]2O)c1N [AICAR (Acadesine)] | 0.934 | 0.887 |
| COCC1(CO)C(=O)C2CCN1CC2 (stereo unspecified) [APR-246 (PRIMA-1MET)] | 0.947 | 0.86 |
| O=C(NC1CCNCC1)c1n[nH]cc1NC(=O)c1c(Cl)cccc1Cl [AT7519 HCl] | 0.725 | 0.673 |
| CC(=O)N1CCC[C@H]1C(=O)N[C@@H](Cc1cnc[nH]1)C(=O)N[C@@H](CO)C(=O)N[C@@H](CS)C(=O)N[C@@H](CC(N)=O)C(N)=O [ATN-161 (Ac-PHSCN-NH2)] | 1 | 0.858 |
| COc1cc(N2CCN(C)CC2)ccc1Nc1nccc(-c2cn(C)c3cnccc23)n1 [AZ191] | 0.971 | 0.867 |
| Cc1ccc(NC(=O)c2cccc(C(C)(C)C#N)c2)cc1Nc1ccc2ncn(C)c(=O)c2c1 [AZ 628] | 0.898 | 0.634 |
| N[C@@H]1CCCN(c2c(/C=C3\SC(=O)NC3=O)cccc2-c2ccccc2)C1 [AZD1208] | 0.958 | 0.841 |
| Cc1cc(Nc2nc(N[C@@H](C)c3ncc(F)cn3)ncc2Cl)[nH]n1 [AZD1480] | 0.952 | 0.766 |
| Cc1[nH]nc(C(F)(F)F)c1Cc1sc2c(c1C(=O)N1C[C@](C)(O)CO1)c(=O)n(C)c(=O)n2C(C)C [AZD3965] | 0.937 | 0.89 |
| COc1cc(CCc2cc(NC(=O)c3ccc(N4CC(C)NC(C)C4)cc3)n[nH]2)cc(OC)c1 (stereo unspecified) [AZD4547] | 0.998 | 0.829 |
| COc1nnc2ccc(N3CCC(c4ccc(OCCN5CCN(C)C(=O)[C@H]5C)cc4)CC3)nn12 [AZD5153] | 0.723 | 0.59 |
| Cc1cc([C@@H](C)Nc2ccccc2C(=O)O)c2nc(N3CCOCC3)cc(=O)n2c1 [AZD6482] | 0.862 | 0.835 |
| C[C@@H]1COCCN1c1cc(C2([S@](C)(=N)=O)CC2)nc(-c2cc[nH]c3nccc2-3)n1 [AZD6738] | 0.805 | 0.749 |
| NC(=O)Nc1cc(-c2cccc(F)c2)sc1C(=O)N[C@H]1CCCNC1 [AZD7762] | 0.558 | 0.507 |
| C=CCn1c(=O)c2cnc(Nc3ccc(N4CCN(C)CC4)cc3)nc2n1-c1cccc(C(C)(C)O)n1 [Adavosertib(MK-1775)] | 0.582 | 0.662 |
| CN(C)C/C=C/C(=O)Nc1cc2c(Nc3ccc(F)c(Cl)c3)ncnc2cc1O[C@H]1CCOC1 [Afatinib (BIBW2992) Dimaleate] | 0.855 | 0.58 |
| CCc1cc2c(cc1N1CCC(N3CCOCC3)CC1)C(C)(C)c1[nH]c3cc(C#N)ccc3c1C2=O [Alectinib hydrochloride] | 0.779 | 0.789 |
| COc1cc(Nc2ncc3c(n2)-c2ccc(Cl)cc2C(c2c(F)cccc2OC)=NC3)ccc1C(=O)O [Alisertib (MLN8237)] | 0.799 | 0.88 |
| O=c1[nH]cnc2[nH]ncc12 [Allopurinol Sodium] | 0.951 | 0.843 |
| Cn1c(=O)cc(N2CCC[C@@H](N)C2)n(Cc2ccccc2C#N)c1=O [Alogliptin] | 0.952 | 0.817 |
| Cc1nc(NC(=O)N2CCC[C@H]2C(N)=O)sc1-c1ccnc(C(C)(C)C(F)(F)F)c1 [Alpelisib (BYL719)] | 0.892 | 0.696 |
| CC(C)(C#N)c1cc(Cn2cncn2)cc(C(C)(C)C#N)c1 [Anastrozole] | 0.939 | 0.799 |
| COc1cc(OC)c2c(=O)[nH]c(-c3cc(C)c(OCCO)c(C)c3)nc2c1 [Apabetalone (RVX-208)] | 0.949 | 0.837 |
| Cc1c(CN2CCN(C(=O)[C@H](C)O)CC2)sc2c(N3CCOCC3)nc(-c3cnc(N)nc3)nc12 [Apitolisib (GDC-0980, RG7422)] | 0.606 | 0.54 |
| COc1cc(C(C)=O)ccc1O [Apocynin] | 0.915 | 0.816 |

| Compound | normalised area under dose-response curve [1] | normalised area under dose-response curve [2] |
| --- | --- | --- |
| O=C1C(=O)N(Cc2ccc(Cl)c(Cl)c2)c2ccccc21 [Apoptosis Activator 2] | 0.952 | 0.969 |
| CNC(=O)c1ccccc1Sc1ccc2c(/C=C/c3ccccn3)n[nH]c2c1 [Axitinib] | 0.898 | 0.857 |
| Nc1ncn([C@@H]2O[C@H](CO)[C@@H](O)[C@H]2O)c(=O)n1 [Azacitidine] | 0.855 | 0.977 |
| Nc1nccc(Oc2ccc3c(C(=O)Nc4cccc(C(F)(F)F)c4)cccc3c2)n1 [BAW2881 (NVP-BAW2881)] | 0.885 | 0.961 |
| Cc1ccc(S(=O)(=O)/C=C/C#N)cc1 [BAY 11-7082] | 0.957 | 0.839 |
| Cc1cc(-c2nc(-c3ccc(OC(F)(F)F)cc3)no2)nn1Cc1ccnc(N2CCN(C3CC3)CC2)c1 [BAY 87-2243] | 0.574 | 0.794 |
| COc1ccc(-c2cc3nccn3c(Nc3ncccc3C(N)=O)n2)cc1OC [BAY-61-3606] | 0.871 | 0.79 |
| Cc1c(NC(=O)c2cc(C(N)=O)nc3cc(F)ccc23)c(C(F)(F)F)nn1Cc1ccc(C#N)cc1 [BAY-876] | 0.826 | 0.718 |
| O=c1[nH]nc(Sc2ncc([N+](=O)[O-])s2)n1-c1ccc2c(c1)OCCO2 [BI-78D3] | 0.965 | 0.811 |
| CC(C)CCN1c2nc(Nc3cc(F)c(O)c(F)c3)ncc2N(C)C(=O)C1C (stereo unspecified) [BI-D1870] | 0.925 | 0.876 |
| CNC(=O)c1cc(Oc2ccc3nc(N[C@@H]4CCCC[C@H]4O)sc3c2)ccn1 [BLZ945] | 0.905 | 0.914 |
| COc1ccc2c(c1)c(CC(=O)N1CCOCC1)c(C)n2C(=O)c1ccc(Cl)cc1 [BML-190] | 0.958 | 1.01 |
| COc1nc(OCc2cccc(-c3ccccc3)c2C)ccc1CNCCNC(C)=O [BMS202 (PD-1PD-L1 inhibitor 2)] | 0.99 | 0.905 |
| O=C(Cc1ccccc1)Nc1nnc(CCSCCc2nnc(NC(=O)Cc3ccccc3)s2)s1 [BPTES] | 0.861 | 0.854 |
| Cc1nn(C)c2c1C(c1ccc(C(F)(F)F)cc1)C(C#N)=C(N)O2 (stereo unspecified) [BQU57] | 0.933 | 0.869 |
| COC(=O)c1ccc2c(c1)nc(NC(=O)c1ccccc1)n2CCCc1ccccc1 [BRD4770] | 0.887 | 0.836 |
| O=C(NCCCNc1nc(Nc2cccc(NC(=O)N3CCCC3)c2)ncc1I)c1cccs1 [BX-795] | 0.885 | 0.883 |
| O=C(Nc1cccc(Nc2ncc(Br)c(NCCc3cnc[nH]3)n2)c1)N1CCCC1 [BX-912] | 0.595 | 0.893 |
| Cc1ccc(NC(=O)c2ccc(CN3CC[C@H](N(C)C)C3)c(C(F)(F)F)c2)cc1Nc1nccc(-c2cncnc2)n1 [Bafetinib (INNO-406)] | 0.906 | 0.841 |
| CC[C@H](NC(=O)[C@H](C)NC)C(=O)N1C[C@@H](O)C[C@H]1Cc1c(-c2[nH]c3cc(F)ccc3c2C[C@@H]2C[C@H](O)CN2C(=O)[C@H](CC)NC(=O)[C@H](C)NC)[nH]c2cc(F)ccc12 [Birinapant] | 0.315 | 1.02 |
| Cn1cc(C2=C(c3cn(CCCSC(=N)N)c4ccccc34)C(=O)NC2=O)c2ccccc21 [Bisindolylmaleimide IX (Ro 31-8220 Mesylate)] | 0.942 | 0.788 |
| O=C(O)C(=O)CBr [Bromopyruvic acid] | 0.992 | 0.834 |
| CCOC(=O)Nc1cc(-c2ccc(C)c(NS(C)(=O)=O)c2)nn2c(C)nnc12 [Bromosporine] | 0.878 | 0.801 |
| CS(=O)(=O)OCCCCOS(C)(=O)=O [Busulfan] | 0.948 | 0.814 |
| Clc1ccc(C(c2c[nH]c3ccccc23)c2c[nH]c3ccccc23)cc1 [C-DIM12] | 0.92 | 0.897 |
| O=C(Cc1cccc(OC(F)(F)F)c1)Nc1ccc(CCCCc2nnc(NC(=O)Cc3ccccn3)s2)nn1 [CB-839] | 0.596 | 0.597 |
